Source: publication PMC11540889, “In Vitro Cytotoxicity of Fluorinated Quaternary Ammonium Salts in Colorectal Cancer Cells and In Silico Pharmacology” (Advances in Pharmacological and Pharmaceutical Sciences, 2024)

Tests used:
[1] = test system: SW620 (Dukes' Type C, Grade IV invasive colorectal adenocarcinoma); assay: MTT cytotoxicity, SW620 cells; conditions: for CC50: Homo sapiens, 48 h; for Index of selectivity MCRT / SW620: IS = CC50 MCRT ÷ CC50 SW620; for Index of selectivity PBMC / SW620: IS = CC50 PBMC ÷ CC50 SW620
Protocol: (§1) The compounds were solubilized in dimethyl sulfoxide (DMSO, Fischer Chemical, NJ, USA) at 50,000 μg/mL and stored at −20°C until use. From the stock solution, six serial 1:2 double dilutions of each compound were prepared to start with concentrations of 100, 50, 25, 12.5, 6.25, and 3.125 μg/mL, respectively. 5-FU, one of the conventional drugs to treat CRC [34], was used as an antitumor compound control at concentrations ranging between 800 and 0.625 μM.
(§2) SW948 (Dukes' Type C, Grade III, premetastatic colorectal adenocarcinoma—CCL-237), SW48 (Dukes' Type C, Grade IV, noninvasive colorectal adenocarcinoma—CCL231), and SW620 (Dukes' Type C, Grade IV invasive colorectal adenocarcinoma—CCL227) (American Type Culture Collection Manassas, VA, USA) were maintained in standard conditions at 37°C, without a CO2 atmosphere. PBMCs and MCRT were used as nontumoral control cells. PBMCs were obtained by healthy donors, separated using Histopaque-1077 (Sigma-Aldrich) and cultured in RPMI-1640 medium (Sigma-Aldrich) supplemented with 10% SFB and 1% penicillin/streptomycin [46]. In turn, MCRT were obtained from healthy BALB/c mice; for this, mice were euthanized with CO2 after previous sedation, the colorectal tissue removed, cleaned up, and cut into 2 × 2 mm pieces, suspended in supplemented DMEM, and used immediately after collection. […] Moreover, the inclusion of PBMC also served to assess the systemic toxicity of FQAS.
(§3) The cytotoxic activity of synthesized FQASs and QASs was studied by measuring cell viability/mortality, determined with the MTT (3-(4,5-dimethylthiazol-2-yl)-2,5-diphenyl tetrazole bromide) method (VWR Chemicals and Reagents Avantor), upon exposure of each cell line to six serial dilutions of the different compounds independently. Unexposed cells were included as viability controls, and cells exposed to 5-FU were included as cytotoxicity controls. Briefly, cells were adjusted to 200,000 cells/mL in the corresponding supplemented culture medium, and 100 μL (20,000 cells/well) were dispensed into each 96-well cell culture plate (Nunc, Thermo Fisher Scientific). Twelve hours after seeding the monolayer, 100 μL dilution of each compound was added to each well; the plates containing CRC were incubated at 37°C in the absence of CO2, while plates with PBMCs and MCRT were incubated at 37°C and 5% CO2 atmosphere. For MCRT, each piece was placed into each well of a 96-well plate and exposed to each dilution of the FQASs and QASs. After 48 h of incubation, 30 μL/well of MTT (5 mg/mL) was added, and plates were left at 37°C for 3 h, protected from light. After this time, 100 μL/well of DMSO was added to solubilize the formazan crystals formed. Plates were read at 570 nm on a Varioskan plate reader (Thermo Fisher), and nonspecific absorbance was corrected by subtracting the optical densities (OD) of the blank solutions corresponding to the supplemented culture media (RPMI 1640, DMEM, or L-15 media) and 0.5% DMSO. Each concentration of the FQASs, QASs, and controls was evaluated in duplicate in three independent experiments.
(§4) The percentages of viability (equation (1)) and mortality (equation (2)) were calculated with the net OD:(1) % viability=OD treated cell÷nontreated cells×100, (2) % mortality=100−% viability.
(§5) The %mortality data for each compound concentration was recorded, and the median cytotoxic concentration (CC50), corresponding to the concentration at which 50% of cell death occurs, was calculated using GraphPad Prism 8 software (GraphPad, Software, Inc., La Jolla, CA, USA). […] Lastly, the index of selectivity (IS) was calculated by dividing the CC50 value obtained for control cells (MCRT and PBMCs) by the CC50 value obtained for each CRC cell phenotype using the formula: IS = CC50 (MCRT or PBMC) ÷ CC50 (SW948, SW48 or SW620).

[2] = Ex vivo MTT cytotoxicity, healthy murine colorectal tissue; type: cell-based, BALB/c mice; conditions: BALB/c, mouse, healthy murine colorectal tissue (MCRT) pieces, ex vivo, nontumoral control, MTT, 48 h, mean ± SD
Protocol: as §1, §2, §3, §4, §5

[3] = MTT cytotoxicity, peripheral blood mononuclear cells; type: cell-based; conditions: human, peripheral blood mononuclear cells (PBMC); PBMC, nontumoral control, MTT, 48 h, mean ± SD
Protocol: as §1, §2, §3, §4, §5

[4] = test system: SW948 (Dukes' Type C, Grade III, premetastatic colorectal adenocarcinoma); assay: MTT cytotoxicity, SW948 cells; conditions: for CC50: Homo sapiens, SW948, 48 h, SW948 cells, MTT, 48 h, mean ± SD; for Index of selectivity MCRT / SW948: IS = CC50 MCRT ÷ CC50 SW948; for Index of selectivity PBMC / SW948: IS = CC50 PBMC ÷ CC50 SW948
Protocol: as §1, §2, §3, §4, §5

[5] = test system: CRC cell lines SW48, SW620, and SW948; assay: MTT cytotoxicity across CRC cell lines (pooled statements, selectivity between lines); type: cell-based; conditions: for Index of selectivity SW48 vs. SW620: IS = CC50 SW48 ÷ CC50 SW620; for Index of selectivity SW948 vs. SW48: IS = CC50 SW948 ÷ CC50 SW48; for Index of selectivity SW948 vs. SW620: IS = CC50 SW948 ÷ CC50 SW620
Protocol: as §1, §2, §3, §4
The %mortality data for each compound concentration was recorded, and the median cytotoxic concentration (CC50), corresponding to the concentration at which 50% of cell death occurs, was calculated using GraphPad Prism 8 software (GraphPad, Software, Inc., La Jolla, CA, USA). […]

[6] = test system: SW48 (Dukes' Type C, Grade IV, noninvasive colorectal adenocarcinoma); assay: MTT cytotoxicity, SW48 cells; conditions: for CC50: SW48 cells, MTT, 48 h, mean ± SD; for Index of selectivity MCRT / SW48: IS = CC50 MCRT ÷ CC50 SW48; for Index of selectivity PBMC / SW48: IS = CC50 PBMC ÷ CC50 SW48
Protocol: as §1, §2, §3, §4, §5

[7] = test system: healthy murine colorectal tissue (MCRT); assay: Ex vivo MTT cytotoxicity, healthy murine colorectal tissue; type: cell-based, BALB/c mice
Protocol: as §1, §2, §3, §4, §5

[8] = test system: peripheral blood mononuclear cells (PBMC); assay: MTT cytotoxicity, peripheral blood mononuclear cells; type: cell-based; conditions: PBMCs
Protocol: as §1, §2, §3, §4, §5

C[N+](C)(C)CCCC=C(c1ccc(C(F)(F)F)cc1)c1ccc(C(F)(F)F)cc1 [Compound 10]
CC50 [1]: 18.8 ± 4.7 µM | Index of selectivity MCRT / SW620 [1]: 6.4 | Index of selectivity PBMC / SW620 [1]: 2.7 | CC50 at 48 h [2]: 119 ± 8.7 µM | CC50 at 48 h [3]: 51.4 ± 5.3 µM | CC50 [4]: 13.4 ± 3.9 µM | Index of selectivity MCRT / SW948 [4]: 8.9 | Index of selectivity PBMC / SW948 [4]: 3.8 | Index of selectivity SW48 vs. SW620 [5]: 2.3 | Index of selectivity SW948 vs. SW48 [5]: 0.3 | Index of selectivity SW948 vs. SW620 [5]: 0.7 | CC50 ([6]; Homo sapiens, SW48, 48 h): 44 ± 6 µM | Index of selectivity MCRT / SW48 [6]: 2.7 | Index of selectivity PBMC / SW48 [6]: 1.2

C[N+](C)(CI)CCCCC=C(c1cccc(C(F)(F)F)c1)c1cccc(C(F)(F)F)c1 [Compound 11]
CC50 [1]: 18.1 ± 3.7 µM | Index of selectivity MCRT / SW620 [1]: 5.2 | Index of selectivity PBMC / SW620 [1]: 1.9 | CC50 at 48 h [2]: 93.5 ± 13.9 µM | CC50 at 48 h [3]: 33.4 ± 2 µM | CC50 [4]: 21.5 ± 4.5 µM | Index of selectivity MCRT / SW948 [4]: 4.4 | Index of selectivity PBMC / SW948 [4]: 1.6 | Index of selectivity SW48 vs. SW620 [5]: 1.2 | Index of selectivity SW948 vs. SW48 [5]: 1.0 | Index of selectivity SW948 vs. SW620 [5]: 1.2 | CC50 ([6]; Homo sapiens, SW48, 48 h): 22.1 ± 4 µM | Index of selectivity MCRT / SW48 [6]: 4.2 | Index of selectivity PBMC / SW48 [6]: 1.5

C[N+](C)(CCl)CCCCC=C(c1ccc(C(F)(F)F)cc1)c1ccc(C(F)(F)F)cc1 [Compound 12]
cytotoxicity level (high/moderate/low) [1]: High | CC50 [1]: 15.1 ± 1.5 µM | Index of selectivity MCRT / SW620 [1]: 7.3 | Index of selectivity PBMC / SW620 [1]: 2.7 | CC50 at 48 h [2]: 111 ± 16.7 µM | CC50 at 48 h [3]: 40.5 ± 9.5 µM | cytotoxicity level (high/moderate/low) [4]: High | CC50 [4]: 25 ± 4.8 µM | Index of selectivity MCRT / SW948 [4]: 4.4 | Index of selectivity PBMC / SW948 [4]: 1.6 | Index of selectivity SW48 vs. SW620 [5]: 3.2 | Index of selectivity SW948 vs. SW48 [5]: 0.5 | Index of selectivity SW948 vs. SW620 [5]: 1.7 | cytotoxicity level (high/moderate/low) [6]: Moderate | CC50 ([6]; Homo sapiens, SW48, 48 h): 48 ± 5.1 µM | Index of selectivity MCRT / SW48 [6]: 2.3 | Index of selectivity PBMC / SW48 [6]: 0.8

C[N+](C)(CI)CCCCC=C(c1ccc(C(F)(F)F)cc1)c1ccc(C(F)(F)F)cc1 [Compound 13]
CC50 [1]: 16 ± 1.5 µM | Index of selectivity PBMC / SW620 [1]: 3.4 | CC50 at 48 h [2]: > 293 µM | CC50 at 48 h [3]: 53.9 ± 3 µM | CC50 [4]: 26.9 ± 4 µM | Index of selectivity PBMC / SW948 [4]: 2.0 | Index of selectivity SW48 vs. SW620 [5]: 1.0 | Index of selectivity SW948 vs. SW48 [5]: 1.7 | Index of selectivity SW948 vs. SW620 [5]: 1.7 | CC50 ([6]; Homo sapiens, SW48, 48 h): 18.5 µM | Index of selectivity PBMC / SW48 [6]: 3.3 | CC50 [6]: 16.3 ± 2 µM

C[N+](C)(C)CCCCC=C(c1ccc(C(F)(F)F)cc1)c1ccc(C(F)(F)F)cc1 [Compound 14]
CC50 [1]: 14.5 ± 2.9 µM | Index of selectivity MCRT / SW620 [1]: 28.9 | Index of selectivity PBMC / SW620 [1]: 6.4 | CC50 at 48 h [2]: 419 ± 15 µM | CC50 at 48 h [3]: 93.2 ± 13.1 µM | CC50 [4]: 49 ± 11.1 µM | Index of selectivity MCRT / SW948 [4]: 8.6 | Index of selectivity PBMC / SW948 [4]: 1.9 | Index of selectivity SW48 vs. SW620 [5]: 1.3 | Index of selectivity SW948 vs. SW48 [5]: 2.6 | Index of selectivity SW948 vs. SW620 [5]: 3.4 | CC50 ([6]; Homo sapiens, SW48, 48 h): 16.3 µM | Index of selectivity MCRT / SW48 [6]: 22.7 | Index of selectivity PBMC / SW48 [6]: 5.0 | CC50 [6]: 18.5 ± 3.6 µM

C[N+](C)(CI)CCCC=C(c1ccccc1)c1ccccc1 [Compound 15]
CC50 [1]: 158 ± 2.3 µM | Index of selectivity MCRT / SW620 [1]: 1.6 | Index of selectivity PBMC / SW620 [1]: 0.2 | CC50 at 48 h [2]: 256 ± 14 µM | cytotoxicity in words [7]: moderate cytotoxicity | cytotoxicity in words [8]: highly cytotoxic | CC50 at 48 h [3]: 29.3 ± 1.4 µM | CC50 [4]: 98.2 ± 4.3 µM | Index of selectivity MCRT / SW948 [4]: 2.6 | Index of selectivity PBMC / SW948 [4]: 0.3 | Index of selectivity SW48 vs. SW620 [5]: 0.8 | Index of selectivity SW948 vs. SW48 [5]: 0.8 | Index of selectivity SW948 vs. SW620 [5]: 0.6 | CC50 ([6]; Homo sapiens, SW48, 48 h): 124 ± 2.3 µM | Index of selectivity MCRT / SW48 [6]: 2.1 | Index of selectivity PBMC / SW48 [6]: 0.2

C[N+](C)(CI)CCCCC=C(c1ccccc1)c1ccccc1 [Compound 16]
CC50 [1]: 72.9 ± 4.2 µM | Index of selectivity MCRT / SW620 [1]: 1.9 | Index of selectivity PBMC / SW620 [1]: 0.5 | CC50 at 48 h [2]: 135 ± 11.8 µM | cytotoxicity in words [7]: noncytotoxic | cytotoxicity in words [8]: highly cytotoxic | CC50 at 48 h [3]: 38.8 ± 5.6 µM | CC50 [4]: 71 ± 12.4 µM | Index of selectivity MCRT / SW948 [4]: 1.9 | Index of selectivity PBMC / SW948 [4]: 0.6 | Index of selectivity SW48 vs. SW620 [5]: 0.9 | Index of selectivity SW948 vs. SW48 [5]: 1.1 | Index of selectivity SW948 vs. SW620 [5]: 1.0 | CC50 ([6]; Homo sapiens, SW48, 48 h): 65.2 ± 3.7 µM | Index of selectivity MCRT / SW48 [6]: 2.1 | Index of selectivity PBMC / SW48 [6]: 0.6
